# US20030186943A1, “Substituted gamma-phenyl-delta-lactams and uses related thereto” (Inflazyme Pharmaceuticals Ltd., priority 1998, published 2003)
# Read-outs that look alike come from different tables or passages of the source.
# Legend:
# [1] = tested on: Resiniferitoxin-induced mouse ear edema; assay: Resiniferitoxin-induced mouse ear edema; type: in vivo; settings: Mus musculus, CD1 mice; for inhibition in vivo at 100 mg/kg: ip, intraperitoneal administration; for inhibition in vivo at 50 µg/ear: topical administration, 50 μg/ear, RTX 0.1 μg/ear; for inhibition in vivo at 10 mg/kg: oral administration
# From the text: One of the primary characteristics of inflammation is an increase in vascular dilation and permeability leading to the extravasation of, and collection of fluids in, the interstitium, resulting in redness and swelling. Rheumatoid arthritis in particular is characterized by pronounced edema of affected joints resulting in significant pain and stiffness. The mouse ear inflammation model is a standard in vivo assay for inflammation that is based on an increase in ear weight which is attributable to edema induced by inflammatory mediators. RTX (resiniferitoxin; Sigma; Catalogue No. R 8756)) is a diterpene isolated from the plant Euphorbia poisonii and is an ultrapotent analog of capsaicin. RTX acts by selectively stimulating nociceptive and thermal-sensitive nerve ending in tissue, eliciting neurogenic edema. Compounds of the present invention, whether administered topically, intraperitoneally or orally, inhibited development of edema induced by topical application of RTX.
# Mice (CD1, Charles River Laboratories) were separated into groups (n—5−8) and tagged. Control mice had RTX (0.1 μg/ear) applied topically to the inner and outer sides of the left ear and vehicle applied to the right ear as a control. For topical administration, experimental/treatment mice received RTX+test compound solution (50 μg/ear) on the left ear and acetone on the right ear. For intraperitoneal (i.p.) administration, 100 mg/kg test compound dissolved in 100 μL PEG 200:saline (1:1) was injected followed by a 30 minute waiting period then the standard 30 minute RTX edema induction. For oral (p.o.) administration, 10 mg/kg test compound in 100 μL PEG-200 was given to animals, then edema induced using 0.1 μg/ear RTX after a 1.5 hour waiting period. After edema induction, mice were sacrificed, and a standard disc of ear tissue was removed. Each disk of tissue was immediately weighed to the nearest 1/10th of a mg. Data were analyzed by taking the difference of each left ear from the right ear, calculating the mean+/−SEM. Statistical significance was tested by 2-sample t-test on the left/right ear weight differences of the control group vs. the experimental group.
# [2] = tested on: cAMP Phosphodiesterase 4 from Human U937 Cells; assay: Inhibition of cAMP phosphodiesterase 4 from human U937 cells; type: biochemical
# Description: PDE's 1 through 4 utilize cAMP as substrate while PDE 5 uses cGMP. […] PDE's for the various assays were partially purified from the following cells/tissues; PDE 1 (bovine heart), PDE 2 (human platelets), PDE 3 (human platelets), PDE 4 (human promonocytic U937 cells) and PDE 5 (human platelets).
# Sonicated cell extracts were then centrifuged at 70,000 g for 30 minutes and supernatants removed. Sucrose was added to a final concentration of 0.25 M, aliquoted and stored at −80° C.
# PDE reactions were performed for 30 minutes at 37° C. in 20 μL volumes in 1 μM [^3H] cAMP (Amersham website http://www.apbiotech.com), 0.5 U/mL 5′ nucleotidase (Sigma), 50 mM Tris Cl, 10 mM MgCl pH 7.5. U937 extract was added such that less than 10% of substrate was consumed. Test compound or vehicle was added to the desired concentration. […] Reactions were performed in duplicate. Reactions were terminated by addition of 200 μL Dowex 1-8400 Cl^− anion exchange resin in a ratio of 1 resin: 2 methanol: 1H2O. Samples were mixed by inversion and then allowed to settle for 2-3 hours.
# PDE 2 (human platelets) = target: T1, PDE 2 (human platelets) (Homo sapiens, UniProt O00408); assay: PDE isozyme specificity: PDE 2; type: biochemical; settings: for inhibition at 100 µM: PDE2, X marks this range
# T1 construct: PDE's for the various assays were partially purified from the following cells/tissues; tissue MDS Panlabs (assay service); host or cells: human platelets
# T1 sequence (O00408 whole entry): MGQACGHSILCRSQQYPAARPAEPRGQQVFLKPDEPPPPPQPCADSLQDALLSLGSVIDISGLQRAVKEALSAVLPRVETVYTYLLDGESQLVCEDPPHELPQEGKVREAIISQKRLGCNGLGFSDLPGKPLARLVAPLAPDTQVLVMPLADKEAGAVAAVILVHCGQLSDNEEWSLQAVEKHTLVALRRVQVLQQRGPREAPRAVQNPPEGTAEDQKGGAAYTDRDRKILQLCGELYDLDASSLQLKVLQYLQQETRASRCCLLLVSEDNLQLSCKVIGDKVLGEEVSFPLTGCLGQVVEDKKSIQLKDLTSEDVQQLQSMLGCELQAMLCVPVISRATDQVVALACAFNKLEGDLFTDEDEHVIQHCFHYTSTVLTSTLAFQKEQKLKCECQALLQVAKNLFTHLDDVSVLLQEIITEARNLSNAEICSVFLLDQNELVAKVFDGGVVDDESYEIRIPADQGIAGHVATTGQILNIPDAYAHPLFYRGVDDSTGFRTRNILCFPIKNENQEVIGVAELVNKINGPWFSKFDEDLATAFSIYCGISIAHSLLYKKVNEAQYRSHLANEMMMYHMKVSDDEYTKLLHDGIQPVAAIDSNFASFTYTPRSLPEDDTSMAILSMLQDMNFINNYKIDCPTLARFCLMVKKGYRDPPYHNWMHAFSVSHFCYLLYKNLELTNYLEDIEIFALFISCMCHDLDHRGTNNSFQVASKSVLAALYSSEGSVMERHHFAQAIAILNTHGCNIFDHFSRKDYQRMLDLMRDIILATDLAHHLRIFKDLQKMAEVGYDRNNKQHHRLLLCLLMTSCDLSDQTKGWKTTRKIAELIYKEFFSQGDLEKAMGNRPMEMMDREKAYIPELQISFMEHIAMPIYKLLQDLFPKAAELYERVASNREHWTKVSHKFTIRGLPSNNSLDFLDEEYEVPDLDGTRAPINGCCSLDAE
# From the text: (§1) Compound 12 was screened for activity against 5 of the major classes of mammalian cyclic nucleotide phosphodiesterase (termed PDE 1 through 5). PDE's 1 through 4 utilize cAMP as substrate while PDE 5 uses cGMP. The broad specificity PDE inhibitor 3-isobutyl-1-methylxanthine (IBMX; Sigma; Catalogue No. 17018)) was used as a positive control in all assays. PDE's for the various assays were partially purified from the following cells/tissues; PDE 1 (bovine heart), PDE 2 (human platelets), PDE 3 (human platelets), PDE 4 (human promonocytic U937 cells) and PDE 5 (human platelets).
# (§2) Test compounds (at 100 μM) were screened for activity against PDE 1,2 and 5, using standard biochemical methods performed at MDS Panlabs (Bothell, Wash., USA). The broad specificity PDE inhibitor 3-isobutyl-1-methylxanthine (IBMX) was used as a positive control in all assays. PDE's for the various assays were partially purified from the following cells/tissues; PDE 1 (bovine heart), PDE 2 (human platelets) and PDE 5 (human platelets). For purposes of comparison, the effects on PDE3 (human platelets) and PDE4 (human U937 monocytic cell line) described above are presented again in Table 12.
# PDE 5 (human platelets) = target: T2, PDE 5 (human platelets) (Homo sapiens, UniProt O76074); assay: PDE isozyme specificity: PDE 5; type: biochemical; settings: for inhibition at 100 µM: read-out: % inhibition by 100 μM test compound 1-25, PDE5, X marks this range
# T2 construct: PDE's for the various assays were partially purified from the following cells/tissues; tissue MDS Panlabs (assay service); host or cells: human platelets
# From the text: as §1, §2
# PDE 1 (bovine heart) = PDE 1 (bovine heart) (Bos taurus, UniProt P14100); assay: PDE isozyme specificity: PDE 1; type: biochemical
# Chain of PDE 1 (bovine heart) (P14100 35-530): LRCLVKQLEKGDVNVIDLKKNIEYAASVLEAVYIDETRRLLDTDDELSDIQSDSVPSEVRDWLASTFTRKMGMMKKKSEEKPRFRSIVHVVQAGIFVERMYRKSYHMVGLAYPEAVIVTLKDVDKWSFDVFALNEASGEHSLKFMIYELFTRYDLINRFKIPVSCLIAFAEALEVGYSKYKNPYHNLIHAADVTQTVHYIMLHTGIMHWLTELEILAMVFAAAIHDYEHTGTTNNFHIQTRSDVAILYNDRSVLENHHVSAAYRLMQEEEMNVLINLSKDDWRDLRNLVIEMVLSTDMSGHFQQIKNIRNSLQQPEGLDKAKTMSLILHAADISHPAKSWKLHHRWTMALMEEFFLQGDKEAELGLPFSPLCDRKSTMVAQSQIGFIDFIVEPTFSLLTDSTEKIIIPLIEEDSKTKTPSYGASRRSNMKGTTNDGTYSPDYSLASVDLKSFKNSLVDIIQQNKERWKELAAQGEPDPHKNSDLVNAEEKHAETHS
# From the text: as §1, §2
# [3] = tested on: tail skin allograft rejection (C57BL/6 donor, BALB/c recipient mice); assay: Murine tail skin allograft transplantation model; type: in vivo, mouse; settings: 10 mg/kg i.p. twice daily; for Average graft survival: from one day prior to and for 15 days after transplantation; for # grafts surviving beyond 16 days p.t.: five mice per group
# Description: Tail skin from donor H-2 b C57BL/6 mice was transplanted onto recipient female H-2^d BALB/c mice (Lagodzinski, Z. et al., Immunology 71:148-150 (1990)). Five mice were included per group. […] Test compounds and CsA were administered twice daily intraperitoneally at a dose of 10 mg/kg beginning at one day prior to transplantation and for 15 days after transplantation, including the day of transplantation. Mice were monitored and scored daily over 15 days post transplantation for graft rejection.
# Skin allograft rejection is primarily mediated by T lymphocytes with little evidence for a major role of antibodies under most circumstances. Skin allograft rejection requires the activation of helper and cytotoxic effector T cell populations. Graft rejection was assessed by monitoring allograft necrosis. Because tail skin is visibly distinct from the surrounding trunk skin of the mouse, the course of rejection can be easily monitored. Fully intact grafts were scored as 100%. Complete graft rejection was defined as >90% graft necrosis. Acute graft rejection generally proceeds via a series of visually obvious events beginning with swelling and erythema of the graft. These events are followed by graft desiccation and scab formation over most or all of the graft, signaling the loss of the viable graft tissue. Scab formation is subsequently followed by shrinkage and scar formation.
# [4] = read-out: % inhibition by 100 μM test compound 25-50
# [5] = read-out: % inhibition by 100 μM test compound 50-75, PDE1, X marks this range
compound,measurement,setting,value
COc1cc(C[C@@H]2CC(c3ccc(OC)c(OC)c3)COC2=O)ccc1O (mixture of isomers) [Compound 12],inhibition in vivo at 100 mg/kg,[1],61%
same,inhibition in vivo at 50 µg/ear,[1],85%
same,IC50,"[2]; human promonocytic U937 cells, read-out: IC50 PDE 4",5.9 µM
same,inhibitory effect on PDE 2,PDE 2 (human platelets); human platelets,no significant inhibitory effects
same,inhibition at 100 µM,PDE 2 (human platelets); [4],25 to 50%
same,inhibitory effect on PDE 5,"PDE 5 (human platelets); human platelets, cGMP substrate",no significant inhibitory effects
same,inhibition at 100 µM,PDE 5 (human platelets),1 to 25%
same,inhibition at 100 µM,PDE 1 (bovine heart); [5],50 to 75%
COc1cc(C[C@@H]2C[C@@H](c3ccc(OC)c(OC)c3)COC2=O)ccc1O [Compound 30],inhibition in vivo at 100 mg/kg,[1],28%
same,inhibition in vivo at 50 µg/ear,[1],98%
same,IC50,"[2]; PDE4 from U937 extract, 1 μM [3H] cAMP, X marks this range, read-out: IC50 range (μM) 1-10",1 to 10 µM
COc1ccc([C@@H]2CCC(=O)OC2)cc1OC1CCCC1 [Compound 41],Average graft survival,[3],11.6 ± 4.6 days
same,Allograft survival rate (% at 9 days post-transplant),[3],60%
same,# grafts surviving beyond 16 days p.t.,[3],1
same,inhibition at 100 µM,PDE 2 (human platelets); [4],25 to 50%
same,inhibition at 100 µM,PDE 5 (human platelets),1 to 25%
same,inhibition at 100 µM,"PDE 1 (bovine heart); read-out: % inhibition by 100 μM test compound 1-25, PDE1, X marks this range",1 to 25%
COc1cc(CC2C[C@@H](c3ccc(OC)c(OC4CCCC4)c3)COC2=O)ccc1O (stereo partly shown) [Compound 43],inhibition in vivo at 100 mg/kg,[1],72%
same,inhibition in vivo at 10 mg/kg,[1],45%
same,inhibition in vivo at 50 µg/ear,[1],98%
same,IC50,[2]; read-out: IC50 against the catalytic activity of PDE4,0.26 µM
same,inhibition at 100 µM,PDE 2 (human platelets); read-out: % inhibition by 100 μM test compound 50-75,50 to 75%
same,inhibition at 100 µM,PDE 5 (human platelets),1 to 25%
same,inhibition at 100 µM,PDE 1 (bovine heart); [5],50 to 75%
COc1ccc([C@H]2CNC(=O)C(Cc3ccc(OCc4ccccc4)c(OC)c3)C2)cc1OC (stereo partly shown) [Compound 54],Average graft survival,[3],11.5 ± 3.3 days
same,Allograft survival rate (% at 9 days post-transplant),[3],75%
same,# grafts surviving beyond 16 days p.t.,[3],0
COc1cc(CC2C[C@@H](c3ccc(OC)c(OC4CCCC4)c3)CNC2=O)ccc1O (stereo partly shown) [Compound 62],inhibition in vivo at 10 mg/kg,[1],30%
"COc1ccc(C2CNC(=O)C2)cc1OC1CCCC1 (stereo not shown) [Rolipram, reference compound]",Average graft survival,[3],11.5 ± 3.7 days
same,Allograft survival rate (% at 9 days post-transplant),[3],50%
same,# grafts surviving beyond 16 days p.t.,[3],1
